Measurements reported in patent EP0377967A2, “9-Aza-3-(oxa/thia)-bicyclo[3,2,1]nonane derivatives, process and intermediates for their preparation and pharmaceutical compositions containing them” (BEECHAM GROUP PLC, priority 1988, dated 1990).

Tested on: von Bezold-Jarisch reflex evoked by 5-HT
Assay: Antagonism of the von Bezold-Jarisch reflex
Type: in vivo
Details: anaesthetised rat; dose of 1µg/kg i.v.
Procedure: The compounds were evaluated for antagonism of the von Bezold-Jarisch reflex evoked by 5-HT in the anaesthetised rat according to the following method:
Male rats 250-350g, were anaesthetised with urethane (1.25g/kg intraperitoneally) and blood pressure and heart rate recorded as described by Fozard J.R. et al., J. Cardiovasc. Pharmacol. 2, 229-245 (1980). A submaximal dose of 5-HT (usually 6µg/kg) was given repeatedly by the intravenous route and changes in heart rate quantified. Compounds were given intravenously and the concentration required to reduce the 5-HT-evoked response to 50% of the control response (ED₅₀) was then determined.

| SMILES | activity (antagonism of the von Bezold-Jarisch reflex) |
| --- | --- |
| COc1ccccc1NC(=O)NC1CC2COCC(C1)N2C (stereo not drawn) [Example E3, endo-N-(9-Methyl-9-aza-3-oxabicyclo[3.3.1]nonan-7-yl)-N′-(2-methoxyphenyl)urea] | active |
| CN1C2COCC1CC(NC(=O)c1nn(C)c3ccccc13)C2 (stereo not drawn) [Example E4, endo-N-(9-Methyl-9-aza-3-oxabicyclo[3.3.1]nonan-7-yl)-1-methyl-1H-indazol-3-carboxamide] | active |
| CN1C2COCC1CC(NC(=O)N1CC(C)(C)c3ccccc31)C2 (stereo not drawn) [Example E5, endo-N-(9-Methyl-9-aza-3-oxabicyclo[3.3.1]nonan-7-yl)-3,3-dimethyl-1-indoline carboxamide] | active |
